Reference: patent publication EP0728482A2, “Use of hcp specific compounds to enhance erythropoiesis” (SMITHKLINE BEECHAM CORPORATION, priority 1995, dated 1996)
“Also recorded” adds a separate entry of the source.

What was measured:
[1] = target: T1, human src SH2 domain (Homo sapiens, UniProt P12931); test: ELISA-based SH2 domain / pY peptide binding assay, src SH2 domain; details: for Ki: Ki calculated from IC50 with the expanded equation; for IC50: inhibition of binding of 0.1 uM biotinylated pY peptide to SH2 domain fusion protein
T1 construct: made in house; host or cells: E. coli AR120
Description: (§1) The inhibitory activity of compounds at the different human SH2 domains was determined in vitro using SH2 domains expressed as fusion proteins in E. coli. The SH2 domains used herein were the human forms of the src SH2 domain, Grb2 SH2 domain, lck SH2 domain, fyn SH2 domain, SH-PTP2 SH2 domain, p85 SH2 domain and hcp SH2 domain.
The fusion proteins containing the src, lck and hcp SH2 domains were expressed as the general sequence: DET1-DET2-spacer-ek-SH2, where DET1, DET2, spacer, ek and SH2 are as described below. DET1 ("defined epitope tag 1") (SEQ ID NO: 1) is an 11 amino acid sequence found in the Human Immunodeficiency Virus Type 1 (HIV-1) envelope protein gp120 (or gp160). Monoclonal antibodies to various epitopes of HIV-1 gp120 (or gp 160) are known in the art, see, for example U.S. Patent 5,166,050. One preferred example is monoclonal antibody 178.1 (see, e.g., Thiriart et al., J. Immunol., 143:1832-1836 (1989)), which was prepared by immunization of mice with a yeast-expressed HIV-1 gp160 molecule from strain BH10 (Ratner et al., Nature, 313:277-284 (1985)). This tag was used for detection of expression (by Western blot), for purification of the protein (by affinity chromatography), and for configuring assays in which the fusion protein was captured or immobilized using the 178.1 antibody. DET2 is a hexa-histidine sequence tag (SEQ ID NO: 2) which binds to nickel-containing resins and was used for purification purposes. Spacer (SEQ ID NO: 3) was utilized to design a BamH1 restriction site at the indicated position of the construct. The term -ek-refers to a recognition sequence (SEQ ID NO: 4) for the enterokinase protease which provides for the optional removal of the tags from the SH2 domain, thus producing an SH2 domain that contains no extraneous amino acids. SH2 domains which contain no extraneous amino acids are preferable to tagged protein for crystallography studies. SH2 refers to the SH2 domains of different proteins.
Procedure 2: Cloning, expression and purification of human src SH2 domain containing tags and an enterokinase proteolytic cleavage site (DET1-DET2-spacer-ek-src SH2).
A DNA sequence encoding protein ek-src SH2 was PCR amplified from a cDNA clone containing the human src gene (c-src SH2 DNA sequence identical to that described in Takeya,T. and Hanafusa, H, 1983 Cell 32:881-890) using the following primers: [formula]
The PCR product was digested with BamHI and XbaI, followed by isolation of the digested fragment on an agarose gel. The fragment was ligated into BamHI-XbaI-digested expression vector containing the tagged chicken src gene DET1-DET2-spacer-SH2 described in Procedure 1 above. In that vector, the BamHI site is located between the coding regions for DET2 and SH2, and the XbaI site is located after the 3' end of the SH2 coding region. The ligation reaction was used to transform E. coli MM294cI^+. The construct DET1-DET2-spacer-ek-src SH2 was confirmed by DNA sequencing (SEQ ID NO: 5) and induced in E. coli strain AR120 as described in Procedure 1 above. A Coomassie-Blue-stained, Western-blot-positive induced protein band with an apparent molecular weight of 16,000 was observed after nalidixic acid induction.
Cells were lysed at neutral pH by sonication in the presance of lysozyme. After centrifugation, the soluble extract was chromatographed on a Ni^++NTA column. After washing the column with equilibration buffer (Tris buffer pH 8 containing 0.5 M Nacl) and the same buffer containing 15 mM imidazole, the protein was eluted in highly purified form with 25 mM imidazole in equilibration buffer.
The binding assays for the SH2 domains and pY peptides were performed in an ELISA-based 96 well plate assay. […]

[2] = system: B6D2F1 female mice; test: murine reticulocyte assay (Hayakawa assay); assay type: in vivo; details: oral gavage, once a day for 7 days
Description: The efficacy of hcp SH2 domain antagonist to enhance erythropoiesis is related to their ability to increase reticulocyte production in the murine reticulocyte assay (Hayakawa T, et al. Biologicals 20; 253 (1992) and Hayakawa T, et al. Biologicals 20; 243 (1992), (collectively hereinafter 'Hayakawa')).
L-3,5-Dibromo-3'-(6-oxo-3(1H)-pyridazinylmethyl)-thyronine (Compound 2) was tested for its in vivo potency to increase reticulocyte production in the Hayakawa assay.
To perform the experiment a total of 12 B6D2F1 female mice were used. The animals were administered Compound 2 (the compound was dissolved in water, pH 11, and administered by oral gavage) once a day for 7 days. At the end of the treatment period blood was collected from the animals and reticulocyte count was determined by known methods. (Hayakawa)

[3] = system: human hcp SH2 domain; test: ELISA-based SH2 domain / pY peptide binding assay, hcp SH2 domain; details: hcp SH2 domain versus src, lck, fyn, SH-PTP2, p85, Grb2 SH2 domains
Description: as §1
The fusion proteins containing the src, lck and hcp SH2 domains were expressed as the general sequence: DET1-DET2-spacer-ek-SH2, where DET1, DET2, spacer, ek and SH2 are as described below. DET1 ("defined epitope tag 1") (SEQ ID NO: 1) is an 11 amino acid sequence found in the Human Immunodeficiency Virus Type 1 (HIV-1) envelope protein gp120 (or gp160). Monoclonal antibodies to various epitopes of HIV-1 gp120 (or gp 160) are known in the art, see, for example U.S. Patent 5,166,050. One preferred example is monoclonal antibody 178.1 (see, e.g., Thiriart et al., J. Immunol., 143:1832-1836 (1989)), which was prepared by immunization of mice with a yeast-expressed HIV-1 gp160 molecule from strain BH10 (Ratner et al., Nature, 313:277-284 (1985)). This tag was used for detection of expression (by Western blot), for purification of the protein (by affinity chromatography), and for configuring assays in which the fusion protein was captured or immobilized using the 178.1 antibody. […]

Row | Molecule | Ki [1] [µM] | IC50 [1] [µM] | Reticulocytes ([2]; 200 mg/kg/day) | Reticulocytes ([2]; 400 mg/kg/day) | Reticulocytes ([2]; 800 mg/kg/day) | binding affinities/inhibitory concentrations at the hcp SH2 domain than at other SH2 domains [3]
1 | CCCNC(=O)[C@H]1CC[C@H](CNC(=O)/C=C/c2ccc(C=O)cc2)CC1 [Compound 9, 4-formyl-E-cinnamido-trans-4-methyl-cyclohexyl-N-(propyl) carboxamide] | 55 | 131 | – | – | – | –
2 | Cc1ccc(C(=O)c2ccc(C(=O)c3ccc(CC=O)cc3)cc2)cc1 [Compound 4, 4-[4-(4-Methylbenzoyl)benzoyl]phenylacetaldehyde] | 40 | 40 | – | – | – | –
3 | N[C@@H](Cc1cc(Br)c(Oc2ccc(O)c(Cc3ccc(=O)[nH]n3)c2)c(Br)c1)C(=O)O [Compound 2, L-3,5-Dibromo-3'-(6-oxo-3(1H)-pyridazinylmethyl)-thyronine] | – | – | 321.0 ± 46.3 10^9/L | 310.8 ± 24.8 10^9/L | 375.2 ± 51.6 10^9/L | –
4 | 4-acetamido-benzamido-trans-4-methyl-cyclohexyl-N-1-(amino-R-2-(methoxy methyl)-pyrrolidine) carboxamide [Compound 8] | 12 | 16 | – | – | – | –

More lines, main results first:

Row | Ki [1] [µM] | IC50 [1] [µM] | Molecule | Reticulocytes ([2]; 200 mg/kg/day) | Reticulocytes ([2]; 400 mg/kg/day) | Reticulocytes ([2]; 800 mg/kg/day) | binding affinities/inhibitory concentrations at the hcp SH2 domain than at other SH2 domains [3]
5 | 6 | 16.1 | Cc1nc2sc3c(c2c2[nH][nH]c(=O)c12)CCC1(C3)OCCO1 [Compound 3, 8,8-Ethylenedioxy-2,3,7,8,9,10-hexahydro-4-methyl-1H-benzo[b]thieno[2,3-b]pyrazolo[3,4-d]pyridin-3-one] | – | – | – | –
6 | 7 | 6 | Cc1nnc(SCC2=C(C(=O)O)N3C(=O)[C@@H](NC(=O)C(N)c4ccc(C(=O)O)cc4)[C@H]3SC2)s1 (stereo partly drawn) [Compound 1, 7-[D,L-α-Amino-α-(4-carboxyphenyl)acetamido]-3-[2-(5-methyl-1,3,4-thiadiazolyl)thiomethyl]Δ^3-cephem-4-carboxylic Acid] | – | – | – | –
7 | 28 | 63 | Cc1nc2sc3c(c2c2c1c(=O)[nH]n2C)CCC1(C3)OCCO1 [Compound 5, 1,4-Dimethyl-8,8-ethylenedioxy-2,3,7,8,9,10-hexahydro-1H-benzo[b]thieno[2,3-b]pyrazolo[3,4-d]pyridin-3-one] | – | – | – | greater than fifty-fold higher; also recorded: greater than one hundred-fold higher
